Results taken from PubChem BioAssay (NCI).
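Cultured in 96-well plates, cells were exposed to test compound for 48 hours across five concentrations. At the TGI there is no net growth.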

Columns and labels:
Experiment in all cases: NCI tumour cell line growth inhibition, 48 h
SNB-78 CNS = system: SNB-78 CNS
TK-10 renal = system: TK-10 renal
U251 CNS = system: U251 CNS
SF-539 CNS = system: SF-539 CNS
HCT-116 colon = system: HCT-116 colon
NCI-H460 lung = system: NCI-H460 lung
A498 renal = system: A498 renal
RXF-631 renal = system: RXF-631 renal
RXF 393 renal = system: RXF 393 renal
M14 melanoma = system: M14 melanoma
ACHN renal = system: ACHN renal
OVCAR-4 ovarian = system: OVCAR-4 ovarian
SK-OV-3 ovarian = system: SK-OV-3 ovarian
EKVX NSCLC = system: EKVX NSCLC
COLO 205 colon = system: COLO 205 colon
SK-MEL-5 melanoma = system: SK-MEL-5 melanoma
HOP-92 NSCLC = system: HOP-92 NSCLC
SNB-19 CNS = system: SNB-19 CNS
UACC-62 melanoma = system: UACC-62 melanoma
OVCAR-8 ovarian = system: OVCAR-8 ovarian
HOP-62 NSCLC = system: HOP-62 NSCLC
LXFL 529 NSCLC = system: LXFL 529 NSCLC
HOP-18 NSCLC = system: HOP-18 NSCLC
M19-MEL melanoma = system: M19-MEL melanoma
SW-620 colon = system: SW-620 colon
786-0 renal = system: 786-0 renal
CCRF-CEM leukemia = system: CCRF-CEM leukemia
SK-MEL-2 melanoma = system: SK-MEL-2 melanoma
A549 NSCLC = system: A549 NSCLC
DMS 114 small cell lung = system: DMS 114 small cell lung
MALME-3M melanoma = system: MALME-3M melanoma
K-562 leukemia = system: K-562 leukemia
NCI-H23 lung = system: NCI-H23 lung
CAKI-1 renal = system: CAKI-1 renal
HCC-2998 colon = system: HCC-2998 colon
SF-268 CNS = system: SF-268 CNS
IGROV1 ovarian = system: IGROV1 ovarian
KM12 colon = system: KM12 colon
UACC-257 melanoma = system: UACC-257 melanoma
SF-295 CNS = system: SF-295 CNS
HL-60(TB) leukemia = system: HL-60(TB) leukemia
KM20L2 colon = system: KM20L2 colon
XF 498 CNS = system: XF 498 CNS
SK-MEL-28 melanoma = system: SK-MEL-28 melanoma
SNB-75 CNS = system: SNB-75 CNS
MOLT-4 leukemia = system: MOLT-4 leukemia
DMS 273 small cell lung = system: DMS 273 small cell lung
RPMI-8226 leukemia = system: RPMI-8226 leukemia
OVCAR-3 ovarian = system: OVCAR-3 ovarian
SN12C renal = system: SN12C renal
HT29 colon = system: HT29 colon
DLD-1 colon = system: DLD-1 colon
HCT-15 colon = system: HCT-15 colon
OVCAR-5 ovarian = system: OVCAR-5 ovarian
LOX IMVI melanoma = system: LOX IMVI melanoma
SR leukemia = system: SR leukemia
UO-31 renal = system: UO-31 renal
NCI-H226 lung = system: NCI-H226 lung
NCI-H522 lung = system: NCI-H522 lung
NCI/ADR-RES ovarian = system: NCI/ADR-RES ovarian
P388 leukemia = system: P388 leukemia
SN12K1 renal = system: SN12K1 renal
MCF7 breast = system: MCF7 breast
P388/ADR leukemia = system: P388/ADR leukemia

COC(=O)[C@@]12CC(C(C)C)[C@H]3CC(C(=O)C=C1OC)[C@H]32 (stereo partly specified)
TGI (SNB-78 CNS): > 100 µM | TGI (TK-10 renal): > 100 µM | TGI (U251 CNS): > 100 µM | TGI (SF-539 CNS): > 100 µM | TGI (HCT-116 colon): > 100 µM | TGI (NCI-H460 lung): > 100 µM | TGI (A498 renal): > 100 µM | TGI (RXF-631 renal): > 100 µM | TGI (RXF 393 renal): > 100 µM | TGI (M14 melanoma): > 100 µM | TGI (ACHN renal): > 100 µM | TGI (OVCAR-4 ovarian): > 100 µM | TGI (SK-OV-3 ovarian): > 100 µM | TGI (EKVX NSCLC): > 100 µM | TGI (COLO 205 colon): > 100 µM | TGI (SK-MEL-5 melanoma): > 100 µM | TGI (HOP-92 NSCLC): > 100 µM | TGI (SNB-19 CNS): > 100 µM | TGI (UACC-62 melanoma): > 100 µM | TGI (OVCAR-8 ovarian): > 100 µM | TGI (HOP-62 NSCLC): > 100 µM | TGI (LXFL 529 NSCLC): > 100 µM | TGI (HOP-18 NSCLC): > 100 µM | TGI (M19-MEL melanoma): > 100 µM | TGI (SW-620 colon): > 100 µM | TGI (786-0 renal): > 100 µM | TGI (CCRF-CEM leukemia): > 100 µM | TGI (SK-MEL-2 melanoma): > 100 µM | TGI (A549 NSCLC): > 100 µM | TGI (DMS 114 small cell lung): > 100 µM | TGI (MALME-3M melanoma): > 100 µM | TGI (K-562 leukemia): > 100 µM | TGI (NCI-H23 lung): > 100 µM | TGI (CAKI-1 renal): > 100 µM | TGI (HCC-2998 colon): > 100 µM | TGI (SF-268 CNS): > 100 µM | TGI (IGROV1 ovarian): > 100 µM | TGI (KM12 colon): > 100 µM | TGI (UACC-257 melanoma): > 100 µM | TGI (SF-295 CNS): > 100 µM | TGI (HL-60(TB) leukemia): > 100 µM | TGI (KM20L2 colon): > 100 µM | TGI (XF 498 CNS): > 100 µM | TGI (SK-MEL-28 melanoma): > 100 µM | TGI (SNB-75 CNS): > 100 µM | TGI (MOLT-4 leukemia): > 100 µM | TGI (DMS 273 small cell lung): > 100 µM | TGI (RPMI-8226 leukemia): > 100 µM | TGI (OVCAR-3 ovarian): > 100 µM | TGI (SN12C renal): > 100 µM | TGI (HT29 colon): > 100 µM | TGI (DLD-1 colon): > 100 µM | TGI (HCT-15 colon): > 100 µM | TGI (OVCAR-5 ovarian): > 100 µM

Nc1c(Cl)ncnc1NCCCCCCCCCCCCNc1ncnc(Cl)c1N
TGI (SNB-78 CNS): 3.54 µM | TGI (TK-10 renal): > 100 µM | TGI (U251 CNS): 4.64 µM | TGI (SF-539 CNS): 30.3 µM | TGI (HCT-116 colon): 6.05 µM | TGI (NCI-H460 lung): 10.1 µM | TGI (A498 renal): > 100 µM | TGI (RXF-631 renal): 9.72 µM | TGI (RXF 393 renal): 8.01 µM | TGI (M14 melanoma): 57.3 µM | TGI (OVCAR-4 ovarian): > 100 µM | TGI (SK-OV-3 ovarian): > 100 µM | TGI (EKVX NSCLC): 98.1 µM | TGI (LOX IMVI melanoma): 6.52 µM | TGI (COLO 205 colon): 21.9 µM | TGI (SK-MEL-5 melanoma): 3.88 µM | TGI (HOP-92 NSCLC): 4.3 µM | TGI (SNB-19 CNS): > 100 µM | TGI (UACC-62 melanoma): 13.6 µM | TGI (OVCAR-8 ovarian): > 100 µM | TGI (HOP-62 NSCLC): 6.82 µM | TGI (LXFL 529 NSCLC): 20.5 µM | TGI (HOP-18 NSCLC): 83.1 µM | TGI (M19-MEL melanoma): 18.8 µM | TGI (SW-620 colon): 54 µM | TGI (786-0 renal): 66.1 µM | TGI (SR leukemia): 5.16 µM | TGI (SK-MEL-2 melanoma): 7.92 µM | TGI (DMS 114 small cell lung): 2.49 µM | TGI (MALME-3M melanoma): > 100 µM | TGI (K-562 leukemia): > 100 µM | TGI (NCI-H23 lung): 2.41 µM | TGI (HCC-2998 colon): 56.9 µM | TGI (SF-268 CNS): > 100 µM | TGI (IGROV1 ovarian): > 100 µM | TGI (KM12 colon): > 100 µM | TGI (UACC-257 melanoma): 4.21 µM | TGI (SF-295 CNS): 5.92 µM | TGI (HL-60(TB) leukemia): 2.12 µM | TGI (KM20L2 colon): > 100 µM | TGI (XF 498 CNS): 3.02 µM | TGI (SK-MEL-28 melanoma): 5.22 µM | TGI (SNB-75 CNS): 7.16 µM | TGI (DMS 273 small cell lung): 10.2 µM | TGI (RPMI-8226 leukemia): 5.74 µM | TGI (OVCAR-3 ovarian): 8.35 µM | TGI (UO-31 renal): 18.3 µM | TGI (SN12C renal): 39.6 µM | TGI (HT29 colon): 49.8 µM | TGI (DLD-1 colon): > 100 µM | TGI (HCT-15 colon): > 100 µM | TGI (OVCAR-5 ovarian): > 100 µM

Cn1c2ccccc2c(=O)c2c(O)cc3c(c21)C=CC(C)(C)O3
TGI (SNB-78 CNS): > 25 µM | TGI (U251 CNS): > 25 µM | TGI (SF-539 CNS): > 25 µM | TGI (HCT-116 colon): > 25 µM | TGI (NCI-H460 lung): > 25 µM | TGI (A498 renal): > 25 µM | TGI (RXF 393 renal): > 25 µM | TGI (OVCAR-4 ovarian): > 25 µM | TGI (SK-OV-3 ovarian): > 25 µM | TGI (EKVX NSCLC): > 25 µM | TGI (LOX IMVI melanoma): > 25 µM | TGI (COLO 205 colon): > 25 µM | TGI (SK-MEL-5 melanoma): > 25 µM | TGI (HOP-92 NSCLC): > 25 µM | TGI (SNB-19 CNS): > 25 µM | TGI (UACC-62 melanoma): > 25 µM | TGI (HOP-62 NSCLC): > 25 µM | TGI (HOP-18 NSCLC): > 25 µM | TGI (M19-MEL melanoma): > 25 µM | TGI (SW-620 colon): > 25 µM | TGI (CCRF-CEM leukemia): > 25 µM | TGI (SK-MEL-2 melanoma): > 25 µM | TGI (NCI-H226 lung): > 25 µM | TGI (A549 NSCLC): > 25 µM | TGI (DMS 114 small cell lung): > 25 µM | TGI (MALME-3M melanoma): > 25 µM | TGI (NCI-H522 lung): > 25 µM | TGI (K-562 leukemia): > 25 µM | TGI (NCI-H23 lung): > 25 µM | TGI (CAKI-1 renal): > 10.1 µM | TGI (HCC-2998 colon): > 25 µM | TGI (SF-268 CNS): > 25 µM | TGI (IGROV1 ovarian): > 25 µM | TGI (KM12 colon): > 25 µM | TGI (UACC-257 melanoma): > 25 µM | TGI (SF-295 CNS): > 25 µM | TGI (HL-60(TB) leukemia): > 20.1 µM | TGI (KM20L2 colon): > 25 µM | TGI (NCI/ADR-RES ovarian): > 25 µM | TGI (XF 498 CNS): > 25 µM | TGI (P388 leukemia): > 25 µM | TGI (SN12K1 renal): > 25 µM | TGI (SK-MEL-28 melanoma): > 25 µM | TGI (SNB-75 CNS): 24.9 µM | TGI (DMS 273 small cell lung): > 25 µM | TGI (RPMI-8226 leukemia): > 25 µM | TGI (OVCAR-3 ovarian): > 25 µM | TGI (UO-31 renal): > 25 µM | TGI (SN12C renal): > 25 µM | TGI (MCF7 breast): > 25 µM | TGI (HT29 colon): > 25 µM | TGI (DLD-1 colon): > 25 µM | TGI (P388/ADR leukemia): > 25 µM | TGI (HCT-15 colon): > 25 µM | TGI (OVCAR-5 ovarian): > 25 µM
